Measured values from patent publication US6602274B1, “Targeted transcutaneous cancer therapy” (Light Sciences Corporation, priority 1999, dated 2003).

Experiments:
[1] = systemic administration, clinical use; cited from earlier work
[2] = tested on: colon carcinoma tumor mass; test: Photodynamic therapy of a solid tumor with implanted LED light source probes after oral ALA; assay type: in vivo, human
Text: A patient in the terminal phase of recurrent malignant colon cancer presented with a protruding colon carcinoma tumor mass of approximately 500 grams and approximately 13 cm in diameter, which extended through the patient's dermis. Due to the advanced state of the patient's disease and due to the highly vascularized nature of this tumor mass, resection was not feasible. Further, this large tumor mass presented a significant amount of pain and discomfort to the patient, as well as greatly impairing the patient's ability to lie flat.
Six separate light source probes, each including a linear array of LEDs, were surgically implanted in this large human tumor using standard surgical procedures. An intensity of about 25-30 mW of light from each light source probe (650 nm peak wavelength) was delivered to the tumor for 40 hours following oral administration to the patient of a single dose of an (ALA) photosensitizer agent (60 mg/kg). However, after 18 hours, two of the light source probes became unseated from the tumor mass and were disconnected from the electrical power supply used to energize the LEDs on each probe. The total fluence delivered to the tumor bed during this single extended duration treatment was in excess of 20,000 Joules. […] The extent of this PDT induced necrotic effect in a large volume of tumor tissue was totally unexpected and has not been described before in any PDT studies in subjects in vivo or clinically. Over the course of four weeks following PDT, the necrotic tumor tissue was debrided from the patient resulting in a reduction of approximately 500 grams of tumor tissue.
The fluence rate employed in this Example represented about 150-180 mW/cm^2, with a total fluence more than 20,000 Joules. The preferable fluence rate contemplated more broadly by the present invention is between about 5 mW/cm^2 and about 100 mW/cm^2, more preferably, between about 10 mW/cm^2 and about 75 mW/cm^2, and most preferably, between about 15 mW/cm^2 and about 50 mW/cm^2.

virus-infected T cells = virus-infected T cells treated with BPD, exposed to light; Blood Cells 18:129-40 (1992); cited from earlier work

For `CCOC(=O)C1=Cc2c3nc(cc4nc(cc5[n-]c(cc6[n-]c2c(C)c6CC)c(C)c5CC)C(C)=C4CC)[C@@H](C)[C@]13CC.[Cl-].[Cl-].[Sn]` (racemic) [PURLYTIN], the “duration of general dermal photosensitivity / sensitization of the skin to light” value [1] is given as “at least several weeks”.

In the case of `NCC(=O)CCC(=O)O` [ALA, aminolevulinic acid], the “Extensive tumor necrosis, radius around each of the light source probes” value ([2]; one patient, single oral dose 60 mg/kg, 650 nm light, 40 hours of PDT, total fluence in excess of 20,000 Joules) is reported as “up to 5 cm”, the “collateral damage to surrounding normal tissue” value ([2]; one patient, single oral dose 60 mg/kg, after 40 hours of PDT) is reported as “no collateral damage” and the “reduction of tumor tissue (necrotic tumor tissue debrided)” value ([2]; over the course of four weeks following PDT, tumor mass of approximately 500 grams) is reported as “approximately 500 grams”.

In the case of `Oc1cccc(-c2c3nc(c(-c4cccc(O)c4)c4ccc([nH]4)c(-c4cccc(O)c4)c4nc(c(-c5cccc(O)c5)c5ccc2[nH]5)CC4)C=C3)c1` [FOSCAN], the “duration of general dermal photosensitivity / sensitization of the skin to light” value [1] is listed as “at least several weeks”.

For benzoporphyrin derivatives [BPD], the “effect on T cell membrane after exposure to light” value (virus-infected T cells) is listed as “holes developed in the T cell membrane and increased in size until the membrane completely decomposed”.

For sodium porfimer [PHOTOPHRIN], the “duration of general dermal photosensitivity / sensitization of the skin to light” value [1] is given as “up to six weeks”.
